Values quoted from earlier work in patent US4610818A, “N-acyl derivatives of dipeptides, their preparation and their use in the therapy of disorders, and agents for this purpose” (BASF Aktiengesellschaft, priority 1982, dated 1986).

Tested on: tremor, rigor and akinesia
Conditions: Parkinson patients, MIF alone or in combination with L-dopa

L-Pro-L-Leu-Gly-NH2 [MIF]
effect on tremor, rigor and akinesia: advantageous effect
